According to US20260191849A1, “PHARMACEUTICAL COMPOSITION FOR TREATMENT OF CANCER” (WIGEN BIOMEDICINE TECHNOLOGY (SHANGHAI) CO., LTD., priority 2022, published 2026):

How the values were obtained:
[1] = tested on: HT29 subcutaneous xenograft tumors; assay: In vivo pharmacodynamic study, HT29 subcutaneous xenograft tumor model of mice (Biological Example 3); set-up: species or system BALB/c nude mice; conditions: 80 mg/kg intragastric once daily, day 28
Experimental: BALB/c nude mice were each inoculated subcutaneously with 5×10^6 HT29 cells on the left dorsal side. After the tumors grew to 100-150 mm^3, the mice were randomly divided into the following groups for intragastric administration once daily: group 1: vehicle control group; group 2: compound 661 (80 mg/kg); group 3: compound 669 (80 mg/kg); group 4: compound 677 (80 mg/kg); group 5: compound 714 (80 mg/kg); group 6: compound 727 (80 mg/kg); group 7: compound 740 (80 mg/kg); and group 8: AMG65 (80 mg/kg). The tumor volume was measured twice weekly and at the end of administration. […].

HCT116 cells [2] = assay: In vitro anti-proliferative activity against HCT116 cells (Biological Example 2); format: cell-based; conditions: in words, from Table 4
Experimental: HCT116 cells were seeded on a 384-well plate at 3000 cells/well. After overnight adherence culture, DMSO or the compounds serially diluted in a 1:5 ratio from 5 μM were added. The cell viability was assessed 72 h after dosing by measuring the intracellular ATP content. The inhibition percentages of viable cells by the compounds were calculated by comparing with the DMSO group, and the IC50 values were also calculated.

[3] = tested on: HT29 subcutaneous xenograft tumors; assay: In vivo pharmacodynamic study of combination therapy, HT29 subcutaneous xenograft tumor model of mice (Biological Example 14); set-up: species or system BALB/c nude mice
Excerpt: BALB/c nude mice were each inoculated subcutaneously with 5×10^6 HT29 cells on the left dorsal side. After the tumors grew to 100-150 mm^3, the mice were randomly divided into the following groups for intragastric administration once daily for 14 consecutive days: group 1: vehicle control group; group 2: AMG650 (50 mpk, PO, QD); group 3: compound 714 (50 mpk, PO, QD); group 4: AMG650 (50 mpk, PO, QD)+Onvasertib (20 mpk, PO, QD); group 5: compound 714 (50 mpk, PO, QD)+Onvasertib (20 mpk, PO, QD); and group 6: Onvasertib (20 mpk, PO, QD). The administration to all the groups was stopped on day 15, and the tumor growth continued to be observed until day 21. The tumor volume was measured twice weekly and at the end of administration. […]

HT29 cells = assay: Combined use of compound 257 with PLK1 inhibitor on HT29 cell viability, 72 h (Biological Example 5); format: cell-based; conditions: for IC50: Homo sapiens, HT-29, 72 h, HT29 cells
Experimental: HT29 cells were seeded on a 384-well plate at 3000 cells/well. After overnight adherence culture, DMSO or compound 257 serially diluted in a 1:5 ratio from 5 μM and a PLK1 inhibitor with a specified concentration were added. The cell viability was assessed 72 h after dosing by measuring the intracellular ATP content. The inhibition percentages of viable cells by the compounds were calculated by comparing with the DMSO group, and the IC50 values were also calculated.

HCT116 cells [4] = assay: Combined use of compound 257 with PLK1 inhibitor (CYC140, TAK-960) on HCT116 cell viability, 168 h (Biological Example 10); format: cell-based
Experimental: HCT116 cells were seeded on a 384-well plate at 3000 cells/well. After overnight adherence culture, DMSO or compound 257 serially diluted in a 1:5 ratio from 400 nM and a PLK1 inhibitor with a specified concentration were added. The cell viability was assessed 168 h after dosing by measuring the intracellular ATP content. The inhibition percentages of viable cells by the compounds were calculated by comparing with the DMSO group, and the IC50 values were also calculated.

HCT116 cells [5] = assay: Combined use of compound 257 with PLK1 inhibitor on HCT116 cell viability, 72 h (Biological Example 6); format: cell-based
Experimental: HCT116 cells were seeded on a 384-well plate at 3000 cells/well. After overnight adherence culture, DMSO or compound 257 serially diluted in a 1:5 ratio from 5 μM and a PLK1 inhibitor with a specified concentration were added. The cell viability was assessed 72 h after dosing by measuring the intracellular ATP content. The inhibition percentages of viable cells by the compounds were calculated by comparing with the DMSO group, and the IC50 values were also calculated.

HCT116 cells [6] = assay: Combined use of compound 257 with Aurora B inhibitor on HCT116 cell viability, 72 h (Biological Example 12); format: cell-based
Experimental: HCT116 cells were seeded on a 384-well plate at 3000 cells/well. After overnight adherence culture, DMSO or compound 257 serially diluted in a 1:5 ratio from 5 μM and an Aurora B inhibitor with a specified concentration were added. The cell viability was assessed 72 h after dosing by measuring the intracellular ATP content. The inhibition percentages of viable cells by the compounds were calculated by comparing with the DMSO group, and the IC50 values were also calculated.

[7] = PO QD 14 days, AMG650/714 50 mpk, Onvasertib 20 mpk, day 15
[8] = PO QD 14 days, AMG650/714 50 mpk, Onvasertib 20 mpk, day 21, after stop of administration

## Cc1cc(NC(=O)c2ccc(NS(=O)(=O)CCO)cc2N2CCC3(CC2)CC3)nc(N2CCC(F)(F)CC2)n1 [AMG650]
[1]
  TGI: 64%
HCT116 cells [2]
  anti-proliferative activity against HCT116 cells: neither the compounds of the present disclosure nor AMG65 exhibited anti-proliferative activity
[3]; PO QD 14 days, AMG650/714 50 mpk, Onvasertib 20 mpk, day 1 (baseline)
  Tumor volume on day 1 of administration: 132 mm^3
[3]; [7]
  TGI on day 15: 115%
  Tumor volume on day 15 of administration: 49 mm^3
[3]; [8]
  TGI on day 21: 100%
  Tumor volume on day 21 of administration: 126 mm^3
[3]; combined with Onvasertib, in words
  tumor inhibitory effect, combined use with the PLK1 inhibitor Onvasertib compared with monotherapy: stronger tumor inhibitory effect
[3]; monotherapy, in words
  therapeutic efficacy of monotherapy in HT29-bearing mice: able to inhibit tumor growth

## COc1ccc(NC(=O)c2ccc(NS(=O)(=O)CCO)cc2N2CCC3(CC2)CC3)nc1N1CCC(F)(F)CC1 [Compound 257]
HT29 cells; BI 2536 0 nM
  IC50: 13.5 nM
HT29 cells; BI 2536 1.25 nM
  IC50: 9.9 nM
HT29 cells; BI 2536 2.5 nM
  IC50: 6.2 nM
HT29 cells; BI 2536 5 nM
  IC50: 2 nM
HT29 cells; BI 2536 10 nM
  IC50: 0.6 nM
HT29 cells; GSK461364 0 nM
  IC50: 13.5 nM
HT29 cells; GSK461364 1.25 nM
  IC50: 14.3 nM
HT29 cells; GSK461364 2.5 nM
  IC50: 8.8 nM
HT29 cells; GSK461364 5 nM
  IC50: 3.3 nM
HT29 cells; GSK461364 10 nM
  IC50: 0.5 nM
HT29 cells; MLN0905 0 nM
  IC50: 13.1 nM
HT29 cells; MLN0905 12.5 nM
  IC50: 4.7 nM
HT29 cells; MLN0905 25 nM
  IC50: 0.5 nM
HT29 cells; Onvansertib 0 nM
  IC50: 12.7 nM
HT29 cells; Onvansertib 12.5 nM
  IC50: 5.2 nM
HT29 cells; Onvansertib 25 nM
  IC50: 0.8 nM
HT29 cells; Rigosertib 0 nM
  IC50: 14.5 nM
HT29 cells; Rigosertib 12.5 nM
  IC50: 12.2 nM
HT29 cells; Rigosertib 25 nM
  IC50: 15.2 nM
HT29 cells; Rigosertib 50 nM
  IC50: 9.1 nM
HT29 cells; Rigosertib 100 nM
  IC50: 0.4 nM
HT29 cells; Ro3280 0 nM
  IC50: 13.6 nM
HT29 cells; Ro3280 12.5 nM
  IC50: 2.9 nM
HT29 cells; Ro3280 25 nM
  IC50: 0.4 nM
HT29 cells; Volasertib 0 nM
  IC50: 13.1 nM
HT29 cells; Volasertib 12.5 nM
  IC50: 1.1 nM
HT29 cells; Volasertib 25 nM
  IC50: 0.7 nM
HT29 cells; in words
  inhibitory effect on HT-29 cells, combined use with the PLK1 inhibitor compared with monotherapy: stronger inhibitory effect
HCT116 cells [4]; CYC140 or TAK-960, in words
  synergistic effect on HCT116 cell viability, combined use with the PLK1 inhibitor: no significant synergistic effect
HCT116 cells [4]; HCT116 cells, CYC140 (Plogosertib) 1.6 nM
  IC50: > 400 nM
HCT116 cells [4]; HCT116 cells, CYC140 (Plogosertib) 8 nM
  IC50: > 400 nM
HCT116 cells [4]; HCT116 cells, TAK-960 0 nM
  IC50: > 400 nM
HCT116 cells [4]; HCT116 cells, TAK-960 8 nM
  IC50: > 400 nM
HCT116 cells [4]; HCT116 cells, TAK-960 40 nM
  IC50: > 400 nM
HCT116 cells [4]; Homo sapiens, HCT-116, HCT116 cells, CYC140 (Plogosertib) 0 nM
  IC50: > 400 nM
HCT116 cells [4]; in words
  anti-proliferative activity against HCT116 cells, monotherapy: did not exhibit anti-proliferative activity
HCT116 cells [5]; HCT116 cells, Volasertib 10 nM
  IC50: > 10000 nM
HCT116 cells [5]; HCT116 cells, Volasertib 50 nM
  IC50: > 10000 nM
HCT116 cells [5]; Homo sapiens, HCT-116, HCT116 cells, Volasertib 0 nM
  IC50: > 10000 nM
HCT116 cells [5]; in words
  anti-proliferative activity against HCT116 cells, monotherapy: did not exhibit anti-proliferative activity
  synergistic effect on HCT116 cell viability, combined use with the PLK1 inhibitor: no significant synergistic effect
HCT116 cells [6]; HCT116 cells, Barasertib 0 nM
  IC50: > 10000 nM
HCT116 cells [6]; HCT116 cells, Barasertib 10 nM
  IC50: > 10000 nM
HCT116 cells [6]; HCT116 cells, Barasertib 100 nM
  IC50: > 10000 nM
HCT116 cells [6]; Homo sapiens, HCT-116, HCT116 cells, Barasertib 1000 nM
  IC50: > 10000 nM
HCT116 cells [6]; in words
  anti-proliferative activity against HCT116 cells, monotherapy: did not exhibit anti-proliferative activity
  synergistic effect on HCT116 cell viability, combined use with the Aurora B inhibitor: no significant synergistic effect
